Tested on: FCA-induced mechanical hypersensitivity
Assay: Guinea Pig FCA Model (mechanical hyperalgesia, paw pressure)
Assay type: in vivo
Details: male Dunkin-Hartley guinea-pigs, FCA intraplantar left paw, oral dosing 24 hours later, reading 1 hour after drug administration; Compound A 1.5 mg/kg, Compound B 1 mg/kg
Procedure: 100 μl of 1 mg/ml FCA was injected intraplantar into the left paw of 6 groups of 6 male Dunkin-Hartley guinea-pigs (average weight 330 g) in order to induce inflammation and evoke a mechanical hypersensitivity (Ref. Stein, C., Millan, M. J., and Herz, A., Unilateral inflammation of the hind paw in rats as a model of prolonged noxious stimulation: alterations in behaviour and nociceptive thresholds, Pharmacol. Biochem. Behav., 31 (1988) 445-451). 24 hours later 1.5 mg/kg rofecoxib, 1 mg/kg N-(2-Bromophenyl)-N′-[((R)-1-(5-trifluoromethyl-2-pyridyl)pyrrolidin-3-yl)]urea and a combination of both was administered orally with the vehicle being 1% methylcellulose, the dosing volume being 2 ml/kg and dosing straight into the stomach. The methylcellulose was added gradually to the compound into the pestle and mortar and ground together. The mixtures were then sonnicated for 20 minutes. Behavioural readouts of mechanical hyperalgesia were obtained before FCA adminsitration (naive reading), after FCA but before drug administration (predose reading) and 1 hour after drug administration. […] The readout used was paw withdrawal in response to paw pressure (Ref. Randall L O, Selitto J J. (1957) A method for measurement of analgesic activity on inflammed tissue. Arch Int. Pharmacodyn 61, 409419.) and the end point was paw withdrawal. […]

Structure (SMILES): CS(=O)(=O)c1ccc(C2=C(c3ccccc3)C(=O)OC2)cc1 [Compound A, rofecoxib]
- % reversal of mechanical hypersensitivity: 30.6%

Structure (SMILES): O=C(Nc1ccccc1Br)N[C@@H]1CCN(c2ccc(C(F)(F)F)cn2)C1 [Compound B, N-(2-Bromophenyl)-N′-[((R)-1-(5-trifluoromethyl-2-pyridyl)pyrrolidin-3-yl)]urea]
- % reversal of mechanical hypersensitivity: 32.5%
